Reference: paper doi:10.1101/2020.11.18.387670v2 (biorxiv, 2020)

Tests used:
α-enolase (ENO1) [1] = biological target: T1, α-enolase (ENO1) (Homo sapiens, UniProt P06733, K330E); assay: SPR; type: binding
α-enolase (ENO1) [2] = biological target: T2, α-enolase (ENO1) (Homo sapiens, UniProt P06733); assay: PKM1-coupled luminescent Kinase-Glo assay; type: biochemical
α-enolase (ENO1) [3] = biological target: T2, α-enolase (ENO1); assay: SPR; type: binding
α-enolase (ENO1) [4] = biological target: T1, α-enolase (ENO1); assay: PKM1-coupled luminescent Kinase-Glo assay; type: biochemical
PKM2 = PKM2 (Homo sapiens, UniProt P14618); assay: SPR; type: binding
TRIM28 = TRIM28 (Homo sapiens, UniProt Q13263); assay: SPR; type: binding
GAPDH = GAPDH (Homo sapiens, UniProt P04406); assay: NADH absorbance at […] nm; type: biochemical; details: activator, allosteric suggested; 1 mM NAD+, 2.88 mM G3P, 20 mM arsenate, pH 8.5
Sequence of GAPDH (P04406 2-335): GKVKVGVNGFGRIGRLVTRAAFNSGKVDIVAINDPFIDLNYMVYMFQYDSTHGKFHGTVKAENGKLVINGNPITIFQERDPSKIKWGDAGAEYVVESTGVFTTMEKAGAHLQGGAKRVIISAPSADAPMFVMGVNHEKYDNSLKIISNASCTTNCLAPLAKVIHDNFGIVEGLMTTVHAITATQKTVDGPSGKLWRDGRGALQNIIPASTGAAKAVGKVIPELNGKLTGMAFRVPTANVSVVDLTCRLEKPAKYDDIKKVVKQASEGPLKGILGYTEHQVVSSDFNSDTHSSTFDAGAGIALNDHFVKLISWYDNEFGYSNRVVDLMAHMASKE

T1 sequence (P06733 whole entry K330E): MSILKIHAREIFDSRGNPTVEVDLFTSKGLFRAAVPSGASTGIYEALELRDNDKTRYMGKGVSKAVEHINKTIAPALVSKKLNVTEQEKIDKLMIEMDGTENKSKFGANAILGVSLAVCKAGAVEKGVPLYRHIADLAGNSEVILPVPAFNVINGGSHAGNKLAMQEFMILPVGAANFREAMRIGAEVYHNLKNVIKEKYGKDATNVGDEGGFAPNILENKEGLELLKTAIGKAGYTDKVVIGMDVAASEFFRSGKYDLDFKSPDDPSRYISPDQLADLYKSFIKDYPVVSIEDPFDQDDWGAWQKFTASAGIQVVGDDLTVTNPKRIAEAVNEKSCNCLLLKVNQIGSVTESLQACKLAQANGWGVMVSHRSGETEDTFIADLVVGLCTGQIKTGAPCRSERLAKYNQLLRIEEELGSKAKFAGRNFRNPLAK
T2 sequence (P06733 whole entry): as the sequence (P06733 whole entry K330E) above, with E330K counted along it
Sequence of TRIM28 (Q13263 whole entry): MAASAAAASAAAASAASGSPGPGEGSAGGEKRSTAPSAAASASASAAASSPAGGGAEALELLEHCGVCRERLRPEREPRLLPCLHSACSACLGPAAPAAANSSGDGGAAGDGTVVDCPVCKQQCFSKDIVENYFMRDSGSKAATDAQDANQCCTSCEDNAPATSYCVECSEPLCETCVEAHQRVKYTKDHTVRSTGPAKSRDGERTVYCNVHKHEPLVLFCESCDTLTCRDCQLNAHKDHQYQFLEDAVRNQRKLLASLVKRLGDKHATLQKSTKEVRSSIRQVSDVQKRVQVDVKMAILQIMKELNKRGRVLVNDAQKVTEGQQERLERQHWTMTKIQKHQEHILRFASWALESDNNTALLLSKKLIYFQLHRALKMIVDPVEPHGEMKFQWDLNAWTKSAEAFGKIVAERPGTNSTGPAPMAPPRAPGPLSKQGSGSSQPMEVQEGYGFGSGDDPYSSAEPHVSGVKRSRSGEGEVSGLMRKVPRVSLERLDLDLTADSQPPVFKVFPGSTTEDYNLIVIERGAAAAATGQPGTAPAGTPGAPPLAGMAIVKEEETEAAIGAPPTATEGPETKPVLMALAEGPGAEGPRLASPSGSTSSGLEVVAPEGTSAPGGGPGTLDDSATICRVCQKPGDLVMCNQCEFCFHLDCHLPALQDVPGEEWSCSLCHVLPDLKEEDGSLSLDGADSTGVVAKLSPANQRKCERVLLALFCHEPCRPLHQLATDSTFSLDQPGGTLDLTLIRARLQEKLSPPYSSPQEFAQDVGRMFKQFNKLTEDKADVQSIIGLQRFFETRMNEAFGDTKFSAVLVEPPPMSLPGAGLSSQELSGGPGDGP
Sequence of PKM2 (P14618 2-531): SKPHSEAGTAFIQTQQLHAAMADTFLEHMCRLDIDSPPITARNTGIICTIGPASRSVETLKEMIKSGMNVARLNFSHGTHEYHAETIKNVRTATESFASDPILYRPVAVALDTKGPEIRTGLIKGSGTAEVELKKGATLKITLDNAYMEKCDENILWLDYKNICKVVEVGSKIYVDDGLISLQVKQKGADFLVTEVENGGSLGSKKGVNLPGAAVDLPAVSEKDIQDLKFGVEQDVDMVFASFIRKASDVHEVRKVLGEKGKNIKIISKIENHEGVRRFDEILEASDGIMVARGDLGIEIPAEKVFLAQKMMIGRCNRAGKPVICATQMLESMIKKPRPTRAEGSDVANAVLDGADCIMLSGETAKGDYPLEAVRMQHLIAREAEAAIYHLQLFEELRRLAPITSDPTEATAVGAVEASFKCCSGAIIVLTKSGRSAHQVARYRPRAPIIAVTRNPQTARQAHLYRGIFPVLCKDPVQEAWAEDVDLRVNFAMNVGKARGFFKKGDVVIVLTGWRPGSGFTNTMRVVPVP

In the case of `O=CC(O)COP(=O)(O)O` (racemic) [G3P], the Kd (α-enolase (ENO1) [1]) is reported as 10.3 µM, the IC50 (α-enolase (ENO1) [2]) is reported as 113 µM and the Kd (α-enolase (ENO1) [3]) is reported as 0.0254 µM. The IC50 (α-enolase (ENO1) [4]) was 1170 µM.

`O=C(O)[C@H](O)COP(=O)(O)O` [3PG] was tested, and the Kd (PKM2) was 0.26 µM.

In the case of `C[C@H](O)C(=O)O` [lactate], the Kd (TRIM28) is reported as 0.0412 µM.

With `CC(=O)C(=O)O` [pyruvate] the “NADH absorbance at 340 nm” value (GAPDH) was “pyruvate can bind to and activate GAPDH”.
